Entries after “also recorded” stand apart in the source; their conditions may differ.
What was measured:
AH13r tumour cells = assay: Hoechst 33258/propidium iodide (Hopi) double colouration for apoptosis; assay type: cell-based; settings: HOPI double colouration of AH13r tumour cells of the rat
[1] = tested on: UBIQUITIN-CONJUGATING ENZYME E2N; UBE2N; assay: Two-dimensional gel electrophoresis, UBE2N; assay type: cell-based; settings: co-treatment of MMC with BVDU
Text: (§1) Listing of the proteins influenced by the treatment with base analogues and mitomycin C. The results of the implementation of a two-dimensional gel electrophoresis are compiled in the following Table 2.

[2] = tested on: APURINIC ENDONUCLEASE; APE; APE1; APEX; assay: Two-dimensional gel electrophoresis, APEX; assay type: cell-based; settings: co-treatment of MMC with BVDU
Text: as §1

JUN-D = assay: Western Blot analysis of survival pathways, JUN-D; assay type: cell-based
Text: (§2) We tested different “survival pathways” by means of Western Blot analysis. The analyses were implemented according to standard methods, as is described in Sambrook et al., 2001, Molecular Cloning (3rd ed.). Antibody dilutions: P-STAT3 (cell signalling) 1:500, JUN-D (Santa Cruz, Calif.) 1:1,000.
(§3) The densitometrically determined content of oncogene proteins JUN-D and STAT3 was reduced by a quarter or two thirds after DOX treatment in the recovery phase (r=recovery phase). In the “recovery” only BVDU is given, no cytostatic.

AH13r sarcoma cells = assay: AH13r cell number under increasing doses of cytostatic with or without BVDU, followed by recovery phase; assay type: cell-based, rat; settings: for cell number: cytostatic + BVDU after three treatment cycles, in comparison to cytostatic alone
Text: This effect was established by means of a screening system according to the invention. This screening method is based on the treatment of tumour cells during a chemotherapy cycle over a period of preferably eight to thirty days with increasing doses of a cytostatic and a constant dose of the overexpression inhibitor. After this combination treatment, the cytostatic is discontinued and the treatment is continued solely with the overexpression inhibitor. This recovery phase (also called recovery phase) lasts preferably between 3 and 10 days. Chemotherapy cycles of this type can be implemented successively up to 6 times.
AH13r cells were subjected to increasing doses of the cytostatic mitomycin C (MMC). […] This inhibitory effect was maintained even after discontinuation of the cytostatic in the next cycle, in the so-called recovery phase. The cells without MMC and BVDU continued to grow without inhibition.

STAT3 = assay: Western Blot analysis of survival pathways, STAT3; assay type: cell-based; settings: after DOX treatment, recovery phase (only BVDU given, no cytostatic)
Text: as §2, §3

[3] = tested on: dimethybenzanthracene (DMBA) induced tumours; assay: DMBA-induced tumours in SD rats, tumour size; assay type: in vivo; settings: DOX 1 mg/kg
Protocol: (§4) The reduction in toxic side effects of doxorubicin (DOX) was able to be shown in the test with rats (see Table 1). SD rats were treated with dimethybenzanthracene (DMBA). […] During the treatment and one day after each treatment, i.e. in the recovery phase, the animals obtained respectively 15 mg/kg BVDU.

[4] = DMBA tumour test in SD rats, animal weight (toxic side effects); assay type: in vivo
Protocol: DT-D inactivates ROS and thus protects cells from non-specific ROS and electrophilic attacks. […] DOX treatment alone leads to weight losses because of the toxic side effects. It is certain that only the side effects (possibly the cardiotoxicity characteristic of DOX) are reduced by BVDU but not the toxic effects on the tumour.
as §4

O=c1[nH]c(=O)n([C@H]2C[C@H](O)[C@@H](CO)O2)cc1/C=C/Br [BVDU, (E)-5-(2-bromovinyl)-2′-deoxyuridine]
apoptosis (AH13r tumour cells): promotes apoptosis | reduction of overexpression of UBE2N [1]: approximately one third | reduction of overexpression of APEX [2]: approximately one third | inhibition of MMC induced JUN-D overexpression (JUN-D; BVDU given in the recovery after MMC): complete inhibition | reduction of densitometrically determined content of JUN-D (JUN-D; after DOX treatment, recovery phase (only BVDU given, no cytostatic)): approximately one quarter; also recorded: a quarter | cell growth in the recovery phase (AH13r sarcoma cells; after discontinuation of the cytostatic, BVDU continued alone): greatly inhibited in their growth | toxic effect on cells (AH13r sarcoma cells; given alone): no toxic effect | reduction of densitometrically determined content of STAT3 (STAT3): approximately two thirds

COc1cccc2c1C(=O)c1c(O)c3c(c(O)c1C2=O)C[C@@](O)(C(=O)CO)C[C@@H]3O[C@H]1C[C@H](N)[C@H](O)[C@H](C)O1 [DOX, doxorubicin]
apoptosis (AH13r tumour cells): initiate apoptosis | Relative tumour size Day 1 ([3]; DMBA-induced tumours, BVDU 15 mg/kg, average of 5-8 rats, Day 1): 1 | Relative tumour size Day 16 ([3]; DMBA-induced tumours, BVDU 15 mg/kg, average of 5-8 rats, Day 16): 1.5 | growth of DMBA-induced tumours [3]: inhibited in their growth | cell number (AH13r sarcoma cells): Corresponding results | Relative animal weight Day 1 ([4]; SD rats, DMBA-induced tumours, DOX 1 mg/kg, BVDU 15 mg/kg, average of 5-8 rats, Day 1): 0 | Relative animal weight Day 16 ([4]; SD rats, DMBA-induced tumours, DOX 1 mg/kg, BVDU 15 mg/kg, average of 5-8 rats, Day 16): −7% | animal weight change (toxic side effects) ([4]; rat, in vivo): weight losses

CO[C@@]12[C@H](COC(N)=O)C3=C(C(=O)C(C)=C(N)C3=O)N1C[C@@H]1N[C@@H]12 [MMC, mitomycin C]
apoptosis (AH13r tumour cells): initiate apoptosis

CN(Cc1cnc2nc(N)nc(N)c2n1)c1ccc(C(=O)N[C@@H](CCC(=O)O)C(=O)O)cc1 [MTX, methotrexate]
cell number (AH13r sarcoma cells): Corresponding results

O=C1c2c(O)ccc(O)c2C(=O)c2c(NCCNCCO)ccc(NCCNCCO)c21 [MXA, mitoxantrone]
apoptosis (AH13r tumour cells): initiate apoptosis | cell number (AH13r sarcoma cells): Corresponding results

Source: patent US7713948B2, “Use of 5-substituted nucleosides for reinforcing the apoptotic effect of cytostatic drugs” (Resprotect GmbH, priority 2003, dated 2010)
